Target: T1, human PTH1 receptor (Homo sapiens, UniProt Q03431)
T1 sequence (Q03431 27-593): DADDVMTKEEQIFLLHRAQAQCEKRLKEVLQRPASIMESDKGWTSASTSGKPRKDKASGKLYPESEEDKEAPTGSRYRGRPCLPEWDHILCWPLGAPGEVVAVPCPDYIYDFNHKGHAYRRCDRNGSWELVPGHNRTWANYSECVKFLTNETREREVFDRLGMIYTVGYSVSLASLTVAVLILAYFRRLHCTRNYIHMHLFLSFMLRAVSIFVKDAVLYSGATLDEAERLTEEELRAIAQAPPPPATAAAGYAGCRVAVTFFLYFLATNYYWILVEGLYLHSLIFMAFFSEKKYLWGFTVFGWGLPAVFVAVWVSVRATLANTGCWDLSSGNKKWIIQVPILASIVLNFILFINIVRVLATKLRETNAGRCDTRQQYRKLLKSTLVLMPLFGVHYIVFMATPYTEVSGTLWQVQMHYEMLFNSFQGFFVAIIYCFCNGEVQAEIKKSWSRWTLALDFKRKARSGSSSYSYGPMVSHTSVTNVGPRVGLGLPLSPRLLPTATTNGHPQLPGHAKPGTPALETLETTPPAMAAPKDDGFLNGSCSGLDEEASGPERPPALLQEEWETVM
Test: In vitro cAMP signal activity in HKRK-B7 cells (LLC-PK1 cells overexpressing the human PTH1 receptor)
Type: cell-based
Conditions: HKRK-B7 cells; compound at 1×10^−3 M; cAMP produced as percentage of that produced by hPTH(1-34) at 100 nM

Compound | cAMP production activity (%)
Cc1cc(C(=O)N(C)C)ccc1CCS(=O)(=O)N1CCC2(CC1)N=C(N(C)c1ccc(C(F)(F)F)cc1)NC2=O [Compound 1400, 3,N,N-trimethyl-4-(2-{2-[methyl-(4-trifluoromethyl-phenyl)-amino]-4-oxo-1,3,8-triaza-spiro[4.5]dec-1-ene-8-sulfonyl}-ethyl)-benzamide] | 49%
Cc1cc(NCC2CNC(=O)O2)ccc1CCS(=O)(=O)N1CCC2(CC1)N=C(C1CCCCC1)NC2=O (stereo not drawn) [Compound 281, 2-cyclohexyl-8-(2-{2-methyl-4-[(2-oxo-oxazolidin-5-ylmethyl)-amino]-phenyl}-ethanesulfonyl)-1,3,8-triaza-spiro[4.5]dec-1-en-4-one] | 92%
Cc1cc(C(=O)N2CCN(c3nccs3)CC2)ccc1CCS(=O)(=O)N1CCC2(CC1)N=C(c1cccc(C(F)(F)F)c1)NC2=O [Compound 364, 8-{2-[2-methyl-4-(4-thiazol-2-yl-piperazine-1-carbonyl)-phenyl]-ethanesulfonyl}-2-(3-trifluoromethyl-phenyl)-1,3,8-triaza-spiro[4.5]dec-1-en-4-one] | 78%
CC(=O)N(C)c1cc(C)c(/C=C/S(=O)(=O)N2CCC3(CC2)N=C(C2CCC(CCC(F)(F)F)CC2)NC3=O)c(C)c1 (stereo not drawn) [Compound 546, N-[3,5-dimethyl-4-((E)-2-{4-oxo-2-[4-(3,3,3-trifluoro-propyl)-cyclohexyl]-1,3,8-triaza-spiro[4.5]dec-1-ene-8-sulfonyl}-vinyl)-phenyl]-N-methyl-acetamide] | 75%
Cc1cc2ccc1CCS(=O)(=O)N1CCC3(CC1)N=C(NC3=O)c1cc(cc(C(F)(F)F)c1)OCCC/C=C\NC(=O)CN(C)C2=O [Compound 1423] | 17%
Cc1cc(C(=O)N2CCC(O)(CF)CC2)cc(C)c1/C=C/S(=O)(=O)N1CCC2(CC1)N=C(c1ccc(OCC(F)(F)C(F)(F)F)c(C(F)(F)F)c1)NC2=O [Compound 1249, 8-{(E)-2-[4-(4-fluoromethyl-4-hydroxy-piperidine-1-carbonyl)-2,6-dimethyl-phenyl]-ethenesulfonyl}-2-[4-(2,2,3,3,3-pentafluoro-propoxy)-3-trifluoromethyl-phenyl]-1,3,8-triaza-spiro[4.5]dec-1-en-4-one] | 62%
Cc1cc(C(=O)N2CCC(O)CC2)cc(C)c1CC(F)(F)S(=O)(=O)N1CCC2(CC1)N=C(c1cccc(OC(F)(F)F)c1)NC2=O [Compound 1101, 8-{1,1-Difluoro-2-[4-(4-hydroxy-piperidine-1-carbonyl)-2,6-dimethyl-phenyl]-ethanesulfonyl}-2-(3-trifluoromethoxy-phenyl)-1,3,8-triaza-spiro[4.5]dec-1-en-4-one] | 110%
Cc1cc(N2COCC2=O)ccc1/C=C/S(=O)(=O)N1CCC2(CC1)N=C(C1CCC(C)CC1)NC2=O (stereo not drawn) [Compound 577, 2-(4-methyl-cyclohexyl)-8-{(E)-2-[2-methyl-4-(4-oxo-oxazolidin-3-yl)-phenyl]-ethenesulfonyl}-1,3,8-triaza-spiro[4.5]dec-1-en-4-one] | 74%
Cc1cc(C(=O)N2CCN(CCN3CCOCC3)CC2)ccc1CCS(=O)(=O)N1CCC2(CC1)N=C(c1cccc(C(F)(F)F)c1)NC2=O [Compound 363, 8-(2-{2-methyl-4-[4-(2-morpholin-4-yl-ethyl)-piperazine-1-carbonyl]-phenyl}-ethanesulfonyl)-2-(3-trifluoromethyl-phenyl)-1,3,8-triaza-spiro[4.5]dec-1-en-4-one] | 67%
CN[C@@H]1CCN(C(=O)c2cc(C)c(/C=C/S(=O)(=O)N3CCC4(CC3)N=C(c3cccc(OC(F)(F)F)c3)NC4=O)c(C)c2)C1 [Compound 398, 8-{(E)-2-[2,6-dimethyl-4-((R)-3-methylamino-pyrrolidine-1-carbonyl)-phenyl]-ethenesulfonyl}-2-(3-trifluoromethoxy-phenyl)-1,3,8-triaza-spiro[4.5]dec-1-en-4-one] | 52%
Cc1cc(N(C)C(N)=O)cc(C)c1/C=C/S(=O)(=O)N1CCC2(CC1)N=C(CCCCCCCCC(F)F)NC2=O [Compound 1321, 1-(4-{(E)-2-[2-(9,9-Difluoro-nonyl)-4-oxo-1,3,8-triaza-spiro[4.5]dec-1-ene-8-sulfonyl]-vinyl}-3,5-dimethyl-phenyl)-1-methyl-urea] | 63%
Cc1cc(N(C)C(N)=O)cc(C)c1CCS(=O)(=O)N1CCC2(CC1)N=C(C1CCC(C)C1)NC2=O (stereo not drawn) [Compound 1055, 1-(3,5-dimethyl-4-{2-[2-(3-methyl-cyclopentyl)-4-oxo-1,3,8-triaza-spiro[4.5]dec-1-ene-8-sulfonyl]-ethyl}-phenyl)-1-methyl-urea] | 84%
CCCCCCCCCC1=NC2(CCN(S(=O)(=O)C(F)(F)Cc3c(C)cc(N(C)C(N)=O)cc3C)CC2)C(=O)N1 [Compound 1086, 1-{4-[2,2-Difluoro-2-(2-nonyl-4-oxo-1,3,8-triaza-spiro[4.5]dec-1-ene-8-sulfonyl)-ethyl]-3,5-dimethyl-phenyl}-1-methyl-urea] | 151%
O=C1NC(C2CCCCC2)=NC12CCN(S(=O)(=O)CCc1ccccc1C(F)(F)F)CC2 [Compound 323, 2-Cyclohexyl-8-[2-(2-trifluoromethyl-phenyl)-ethanesulfonyl]-1,3,8-triaza-spiro[4.5]dec-1-en-4-one] | 53%
Cc1noc(C2CCN(C(=O)c3ccc(CCS(=O)(=O)N4CCC5(CC4)N=C(c4cccc(C(F)(F)F)c4)NC5=O)c(C)c3)CC2)n1 [Compound 358, 8-(2-{2-methyl-4-[4-(3-methyl-[1,2,4]oxadiazol-5-yl)-piperidine-1-carbonyl]-phenyl}-ethanesulfonyl)-2-(3-trifluoromethyl-phenyl)-1,3,8-triaza-spiro[4.5]dec-1-en-4-one] | 71%
Cc1cc(N(C)C(N)=O)cc(C)c1CC[S@TB3](=O)(=O)N1CCC2(CC1)N=C(c1cccc(CCC(C)C)c1)NC2=O [Compound 1144, 1-[3,5-dimethyl-4-(2-{2-[3-(3-methyl-butyl)-phenyl]-4-oxo-1,3,8-triaza-spiro[4.5]dec-1-ene-8-sulfonyl}-ethyl)-phenyl]-1-methyl-urea] | 124%
COc1c(N(C)C(=O)OC(C)(C)C)cc(C)c(CCS(=O)(=O)N2CCC3(CC2)N=C([C@H]2CC[C@H](C)CC2)NC3=O)c1C [Compound 669, (2-methoxy-3,5-dimethyl-4-{2-[2-(4-methyl-cyclohexyl)-4-oxo-1,3,8-triaza-spiro[4.5]dec-1-ene-8-sulfonyl]-ethyl}-phenyl)-methyl-carbamic acid tert-butyl ester] | 58%
Cc1cc(N2C(=O)CNC2=O)cc(C)c1/C=C/S(=O)(=O)N1CCC2(CC1)N=C(C1CCC(C)CC1)NC2=O (stereo not drawn) [Compound 575, 3-(3,5-Dimethyl-4-{(E)-2-[2-(4-methyl-cyclohexyl)-4-oxo-1,3,8-triaza-spiro[4.5]dec-1-ene-8-sulfonyl]-vinyl}-phenyl)-imidazolidine-2,4-dione] | 57%

Reference: US9169254B2, “Spiroimidazolone derivative” (Chugai Seiyaku Kabushiki Kaisha, priority 2009, dated 2015)
